Values of other authors as cited in patent publication US20040132806A1, “Pravastatin pharmaceutical formulations and methods of their use” (priority 2002, published 2004).
Where two headings read alike, the source gives them in different places.

Legend:
[1] = intravenous, radiolabeled
[2] = not given; remark: listed apart in the source
[3] = patients treated with pravastatin (Schatke et al, 1992)
[4] = such as the stomach

hepatic extraction ratio (Lennernas & Fager, 1997): 0.45
hepatic extraction ratio (Quion & Jones, 1994): 0.66
first-pass extraction in the liver (extraction ratio) (in vivo): 0.66
share of total body clearance by non-renal routes (biliary excretion and biotransformation) [1]: ~53%
share of total body clearance via renal excretion [1]: approximately 47%
decrease of systemic bioavailability following a bedtime dose (PM) compared to morning (AM) dose ([2]; PM vs AM dose): 60%
average oral absorption ([2]; based on urinary recovery of radiolabeled drug): 34%
radiolabeled oral dose excreted in the feces ([2]; oral radiolabeled dose): ~70%
radiolabeled oral dose excreted in urine ([2]; oral radiolabeled dose): Approximately 20%
myopathy [3]: Severe myopathy has been observed
stability in acidic conditions [4]: poor stability
Structure (SMILES): CC[C@H](C)C(=O)O[C@H]1C[C@H](O)C=C2C=C[C@H](C)[C@H](CC[C@@H](O)C[C@@H](O)CC(=O)O)[C@H]21 [pravastatin, Pravastatin]
